Source: ChEMBL document CHEMBL5365411, “Synthesis of 1-(4-(dimethylamino)phenyl)-3,4-diphenyl-1H-pyrrole-2,5-dione analogues and their anti-inflammatory activities in lipopolysaccharide-induced BV2 cells” (Bioorg Med Chem Lett, 2023)
Active and inactive are the calls of the source. No cut-off for these calls is given here.

Legend:
BV-2 [1] = experiment: Inhibition of LPS-induced NO release in mouse BV-2 cells at 20 uM incubated for 24 hrs by Griess assay relative to control; assay type: functional
[2] = Cytotoxicity against LPS-induced mouse BV-2 cells assessed as cell viability at 20 uM incubated for 24 hrs by MTT assay relative to control; assay type: toxicity, cell-based; settings: LPS-induced BV-2 cells, read-out: Activity
BV-2 [3] = experiment: Inhibition of LPS-induced NO release in mouse BV-2 cells incubated for 24 hrs by Griess assay; assay type: functional, cell-based; settings: for IC50: BV-2, 24 h
BV-2 [4] = experiment: Inhibition of LPS-induced NFkappaB activation in mouse BV2 cells assessed as reduction in p65 phosphorylated protein expression level pre-incubated for 30 mins followed by LPS addition by Western blot analysis; assay type: cell-based; settings: dose 5-20 µM
BV-2 [5] = experiment: Cytotoxicity against LPS-induced mouse BV-2 cells assessed as cell viability at 2.5 to 20 uM incubated for 24 hrs by MTT assay; assay type: toxicity, cell-based; settings: bv-2, 24 h, dose 2.5-20 µM
BV-2 [6] = experiment: Anti-inflammatory activity against LPS-induced mouse BV-2 cells assessed as reduction in iNOS protein expression pre-incubated for 1 hrs followed by LPS addition and measured after 18 hrs by Western blot analysis; assay type: functional, cell-based; settings: dose 5-20 µM, time 19.0 hrs
BV-2 [7] = experiment: Anti-inflammatory activity against LPS-induced mouse BV-2 cells assessed as reduction in IL-6 mRNA expression pre-incubated for 1 hrs followed by LPS addition and measured after 6 hrs by RT-PCR method; assay type: functional, cell-based; settings: dose 5-20 µM, time 7.0 hrs
[8] = molecular target: c-Jun N-terminal kinase (Mus musculus) (UniProt Q91Y86+Q9WTU6+Q61831); experiment: Inhibition of LPS-induced JNK phosphorylation in mouse BV-2 cells pretreated for 30 mins followed by LPS stimulation by Western blot analysis; assay type: cell-based; settings: dose 5-20 µM
c-Jun N-terminal kinase (Mus musculus), sequence (Q61831 whole entry, looked up): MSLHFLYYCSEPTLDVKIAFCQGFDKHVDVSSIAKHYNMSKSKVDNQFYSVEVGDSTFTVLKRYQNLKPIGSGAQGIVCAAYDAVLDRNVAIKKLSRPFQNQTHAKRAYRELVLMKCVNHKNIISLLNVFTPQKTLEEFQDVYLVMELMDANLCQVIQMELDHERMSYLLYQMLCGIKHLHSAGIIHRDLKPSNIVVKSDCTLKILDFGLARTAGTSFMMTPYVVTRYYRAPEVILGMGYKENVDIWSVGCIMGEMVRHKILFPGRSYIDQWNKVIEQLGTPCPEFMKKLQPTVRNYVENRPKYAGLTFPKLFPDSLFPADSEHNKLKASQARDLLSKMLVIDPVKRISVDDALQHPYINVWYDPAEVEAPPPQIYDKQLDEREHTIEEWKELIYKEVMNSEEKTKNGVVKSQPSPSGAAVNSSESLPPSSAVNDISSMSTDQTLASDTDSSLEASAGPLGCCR
c-Jun N-terminal kinase (Mus musculus), sequence (Q91Y86 whole entry, looked up): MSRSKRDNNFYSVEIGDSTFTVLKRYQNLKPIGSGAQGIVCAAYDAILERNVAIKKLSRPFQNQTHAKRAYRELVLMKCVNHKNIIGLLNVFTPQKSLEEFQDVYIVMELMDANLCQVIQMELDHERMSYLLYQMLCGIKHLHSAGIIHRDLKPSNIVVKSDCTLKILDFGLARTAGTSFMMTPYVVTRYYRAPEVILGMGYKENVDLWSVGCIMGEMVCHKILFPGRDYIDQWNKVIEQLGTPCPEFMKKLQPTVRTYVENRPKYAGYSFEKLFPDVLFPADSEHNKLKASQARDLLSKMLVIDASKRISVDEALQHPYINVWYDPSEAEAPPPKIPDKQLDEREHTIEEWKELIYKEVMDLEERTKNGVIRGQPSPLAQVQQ
c-Jun N-terminal kinase (Mus musculus), sequence (Q9WTU6 whole entry, looked up): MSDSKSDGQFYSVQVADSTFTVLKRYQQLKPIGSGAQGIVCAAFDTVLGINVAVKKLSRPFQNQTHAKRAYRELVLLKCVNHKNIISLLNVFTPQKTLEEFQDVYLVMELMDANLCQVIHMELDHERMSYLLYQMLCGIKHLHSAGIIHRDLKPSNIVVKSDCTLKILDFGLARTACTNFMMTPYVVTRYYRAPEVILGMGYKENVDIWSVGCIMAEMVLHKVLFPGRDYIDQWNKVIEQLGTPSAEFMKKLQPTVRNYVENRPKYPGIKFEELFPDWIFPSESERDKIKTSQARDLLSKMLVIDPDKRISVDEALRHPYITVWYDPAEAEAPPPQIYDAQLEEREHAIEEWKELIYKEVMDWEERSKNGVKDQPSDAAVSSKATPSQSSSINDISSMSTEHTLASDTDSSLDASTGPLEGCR

BV-2 [9] = experiment: Anti-inflammatory activity against LPS-induced mouse BV-2 cells assessed as reduction in IL-1beta mRNA expression pre-incubated for 1 hrs followed by LPS addition and measured after 6 hrs by RT-PCR method; assay type: functional, cell-based; settings: dose 5-20 µM, time 7.0 hrs
BV-2 [10] = experiment: Anti-inflammatory activity against LPS-induced mouse BV-2 cells assessed as reduction in COX-2 mRNA expression pre-incubated for 1 hrs followed by LPS addition and measured after 6 hrs by RT-PCR method; assay type: functional, cell-based; settings: dose 5-20 µM, time 7.0 hrs
[11] = Inhibition of LPS-induced ERK phosphorylation in mouse BV-2 cells pretreated for 30 mins followed by LPS stimulation by Western blot analysis; assay type: cell-based; settings: dose 5-20 µM
BV-2 [12] = experiment: Anti-inflammatory activity against LPS-induced mouse BV-2 cells assessed as reduction in TNF-alpha mRNA expression pre-incubated for 1 hrs followed by LPS addition and measured after 6 hrs by RT-PCR method; assay type: functional, cell-based; settings: dose 5-20 µM, time 7.0 hrs
[13] = molecular target: MAP kinase p38 (Mus musculus) (UniProt P47811+O08911+Q9WUI1+Q9Z1B7); experiment: Inhibition of LPS-induced p38 phosphorylation in mouse BV-2 cells pretreated for 30 mins followed by LPS stimulation by Western blot analysis; assay type: cell-based; settings: dose 5-20 µM
BV-2 [14] = experiment: Anti-inflammatory activity against LPS-induced mouse BV-2 cells assessed as reduction in iNOS mRNA expression pre-incubated for 1 hrs followed by LPS addition and measured after 6 hrs by RT-PCR method; assay type: functional, cell-based; settings: dose 5-20 µM, time 7.0 hrs
BV-2 [15] = experiment: Inhibition of LPS-induced NFkappaB activation in mouse BV2 cells assessed as reduction in IkappaBalpha phosphorylated protein expression level pre-incubated for 30 mins followed by LPS addition by Western blot analysis; assay type: cell-based; settings: dose 5-20 µM
BV-2 [16] = experiment: Anti-inflammatory activity against LPS-induced mouse BV-2 cells assessed as reduction in COX-2 protein expression pre-incubated for 1 hrs followed by LPS addition and measured after 18 hrs by Western blot analysis; assay type: functional, cell-based; settings: dose 5-20 µM, time 19.0 hrs
RAW264.7 = experiment: Inhibition of LPS-induced NO release in mouse RAW264.7 cells at 15 uM incubated for 24 hrs by Griess assay relative to control; assay type: functional
BV-2 [17] = experiment: Inhibition of LPS-induced NO release in mouse BV-2 cells up to 100 uM incubated for 24 hrs by Griess assay; assay type: functional, cell-based

Row | Structure (SMILES) | inhibition at 20 µM (BV-2 [1]) | viability at 24 h, 20 µM [2] | further results
1 | O=C1C(c2ccccc2)=C(c2ccccc2)C(=O)N1c1ccc(F)cc1 | 10.3% | 100% | 
2 | CN(C)c1cccc(N2C(=O)C(c3ccccc3)=C(c3ccccc3)C2=O)c1 | 82.1% | 90.2% | IC50 (BV-2 [3]): 12.7 µM
3 | O=C1CCC(N2C(=O)C(c3ccccc3)=C(c3ccccc3)C2=O)C(=O)N1 (centres undefined) | 10.2% | 98.5% | IC50 (BV-2 [3]): > 50 µM
4 | N#Cc1ccc(N2C(=O)C(c3ccccc3)=C(c3ccccc3)C2=O)cc1 | 6.9% | 80% | 
5 | O=C1C(c2ccccc2)=C(c2ccccc2)C(=O)N1c1ccc(Cl)cc1 | 16% | 93.9% | 
6 | O=C1C(c2ccccc2)=C(c2ccccc2)C(=O)N1Cc1ccccc1 | 21.9% | 100% | 
7 | CN(C)c1ccc(N2C(=O)C(c3ccccc3)=C(c3ccccc3)C2=O)cc1 | 83.5% | 98.9% | inhibition (BV-2 [4]): Dose-Dependent Effect; Activity (BV-2 [5]): Non-Toxic; Activity (BV-2 [6]): Dose-Dependent Effect; Activity (BV-2 [7]): Dose-Dependent Effect; inhibition [8]: inactive; inhibition (BV-2 [3]): Dose-Dependent Effect; IC50 (BV-2 [3]): 7.1 µM; Activity (BV-2 [9]): Dose-Dependent Effect; Activity (BV-2 [10]): Dose-Dependent Effect; inhibition [11]: inactive; Activity (BV-2 [12]): Dose-Dependent Effect; inhibition [13]: Dose-Dependent Effect; Activity (BV-2 [14]): Dose-Dependent Effect; inhibition (BV-2 [15]): Dose-Dependent Effect; Activity (BV-2 [16]): Dose-Dependent Effect
8 | O=C1CCC(N2C(=O)c3ccccc3C2=O)C(=O)N1 (centres undefined) [THALIDOMIDE] | 0% | 93.5% | inhibition at 15 µM (RAW264.7): 15%; inhibition (BV-2 [17]): inactive
9 | CN(C)c1ccccc1N1C(=O)C(c2ccccc2)=C(c2ccccc2)C1=O | 81.6% | 100% | IC50 (BV-2 [3]): 13.3 µM
10 | O=C1C(c2ccccc2)=C(c2ccccc2)C(=O)N1c1ccc(Br)cc1 | 11.5% | 95.7% | 
11 | COc1ccc(N2C(=O)C(c3ccccc3)=C(c3ccccc3)C2=O)cc1 | 32.3% | 97.2% | 
12 | O=C1C(c2ccccc2)=C(c2ccccc2)C(=O)N1c1ccc([N+](=O)[O-])cc1 | 19.3% | 99.4% | 
13 | O=C1C(c2ccccc2)=C(c2ccccc2)C(=O)N1c1ccccc1 | 22.5% | 93.3% | 
14 | O=C1C(c2ccccc2)=C(c2ccccc2)C(=O)N1c1ccc(I)cc1 | 22.5% | 100% | 
15 | O=C1C(c2ccccc2)=C(c2ccccc2)C(=O)N1CCc1ccccc1 | 14.2% | 100% | 
16 | Cc1ccc(N2C(=O)C(c3ccccc3)=C(c3ccccc3)C2=O)cc1 | 25.8% | 97.8% | 
17 | Nc1ccc(N2C(=O)C(c3ccccc3)=C(c3ccccc3)C2=O)cc1 | 27.6% | 90.2% | 
18 | CC(C)(C)OC(=O)Nc1ccc(N2C(=O)C(c3ccccc3)=C(c3ccccc3)C2=O)cc1 | 39.6% | 97.1% | 
19 | CC(C)(C)c1ccc(N2C(=O)C(c3ccccc3)=C(c3ccccc3)C2=O)cc1 | 18.4% | 100% | 
20 | O=C1C(c2ccccc2)=C(c2ccccc2)C(=O)N1c1ccc(OC(F)(F)F)cc1 | 12.9% | 94.5% | 
21 | O=C1C(c2ccccc2)=C(c2ccccc2)C(=O)N1c1ccc(C(F)(F)F)cc1 | 12.4% | 99.4% | 
22 | O=C1C(c2ccccc2)=C(c2ccccc2)C(=O)N1c1ccc(N2CCCCC2)cc1 | 5.8% | 87.4% | 
